Experimental data reported in ChEMBL document CHEMBL1140379, “Extraction and visualization of potential pharmacophore points using support vector machines: application to ligand-based virtual screening for COX-2 inhibitors” (J Med Chem, 2005).
pIC50: −log10 of the molar value.

Molecular target: T1, Prostaglandin G/H synthase 2 (Homo sapiens, UniProt P35354)
T1 sequence (P35354 whole entry): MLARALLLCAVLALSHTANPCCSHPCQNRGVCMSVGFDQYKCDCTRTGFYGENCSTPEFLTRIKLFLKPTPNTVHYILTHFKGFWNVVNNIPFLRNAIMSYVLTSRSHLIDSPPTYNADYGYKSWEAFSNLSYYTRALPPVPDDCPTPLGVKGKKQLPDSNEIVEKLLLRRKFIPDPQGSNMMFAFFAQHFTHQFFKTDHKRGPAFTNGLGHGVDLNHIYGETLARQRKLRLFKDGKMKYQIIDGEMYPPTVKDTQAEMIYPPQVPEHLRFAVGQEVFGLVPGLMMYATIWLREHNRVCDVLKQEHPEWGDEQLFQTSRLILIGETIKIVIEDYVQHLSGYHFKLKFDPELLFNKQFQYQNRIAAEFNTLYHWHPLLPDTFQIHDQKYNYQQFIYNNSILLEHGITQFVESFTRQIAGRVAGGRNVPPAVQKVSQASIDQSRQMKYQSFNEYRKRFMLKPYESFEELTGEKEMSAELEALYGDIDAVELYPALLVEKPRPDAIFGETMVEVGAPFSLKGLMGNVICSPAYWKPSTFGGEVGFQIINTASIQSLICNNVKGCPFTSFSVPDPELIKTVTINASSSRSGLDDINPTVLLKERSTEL
Experiment: Inhibitory concentration against COX-2 upon incubation for 15 minutes at 37 degree C

Row | Structure (SMILES) | pIC50
1 | COc1ccccc1-n1c(-c2ccc(S(N)(=O)=O)cc2)nc2ccccc21 | 5.10
2 | NS(=O)(=O)c1ccc(-c2nc3ccccc3n2-c2ccc(Cl)cc2)cc1 | 6.70
